Results as given in the SangsterLogP compilation.

Assay: method code SF-AS, from DOI: 10.1002/zfch.19780180919

Row | Compound | logP
1 | COc1ccccc1C(=O)NN | 0.25
2 | NNC(=O)c1ccccc1O | 0.6
3 | NNC(=O)c1ccc([N+](=O)[O-])cc1 | 0.35
4 | NNC(=O)c1ccc(N)cc1 | -0.75
5 | NNC(=O)c1ccccc1I | 0.47
6 | Cc1ccccc1C(=O)NN | 0.22
7 | Cc1ccc(C(=O)NN)cc1 | 0.73
8 | NNC(=O)c1ccccc1Br | 0.26
9 | NNC(=O)c1ccc(Br)cc1 | 1.28
10 | NNC(=O)c1ccccc1Cl | 0.14
11 | NNC(=O)c1ccc(O)cc1 | -0.33
12 | COc1ccc(C(=O)NN)cc1 | 0.25
13 | NNC(=O)c1ccc(I)cc1 | 1.55
14 | NNC(=O)c1ccccc1[N+](=O)[O-] | -0.54
15 | NNC(=O)c1ccc(Cl)cc1 | 1.12

Further lines, results first:

Row | logP | Compound
16 | 1.18 | NNC(=O)c1cccc(Cl)c1
17 | -0.86 | NNC(=O)c1cccc(N)c1
18 | 1.26 | NNC(=O)c1cccc(Br)c1
19 | -0.18 | NNC(=O)c1ccccc1N
20 | 1.53 | NNC(=O)c1cccc(I)c1
21 | 0.4 | COc1cccc(C(=O)NN)c1
22 | 0.74 | Cc1cccc(C(=O)NN)c1
23 | 0.23 | NNC(=O)c1cccc([N+](=O)[O-])c1
24 | -0.08 | NNC(=O)c1cccc(O)c1
